Data on three molecules can be found in patent US10918599B2, “Serum-stable compositions and methods for light-triggered release of materials” (priority 2015, dated 2021).

Series [1] concerns MIA Paca-2 tumors. Description: Survival study, phototreatment efficacy (Example 1). It counts as in vivo.
Experimental: Survival study. 5×10^6 MIA Paca-2 cells (obtained from ATTC) were injected in the right flank female nude mice mice (5 weeks, Jackson Labs, #007850). […] N=5-6. Dose for Dox-PoP is 7 mg/kg for Dox and the dose of PoP was adjusted to be equivalent to that of Dox-PoP 7 mg/kg (Dox to lipid loading ratio 1:5), which is 1.225 mg/kg (1.21 μmol/kg Pyro-phospholipid). […] 21 mg/kg of sterically stabilized liposomal Dox (HSPC:CHOL:DSPE-PEG-2K=56.3:38.4:5.3% mole) was used for standard treatment of Doxil®. Free Dox 7 mg/kg was used as a free drug control. 1 h after intravenous injection, tumors that need laser treatment were all irradiated at a fluence rate of 300 W/cm^2 for 16 min 40 s (total fluence 300 J/cm^2). HPPH was diluted in PBS containing 2% ethanol and 0.2% Tween 80 and injected at a dose of 1.21 μmol/kg. Light treatment was performed 24 h post injection. Tumor size was monitored 2-3 times per week and tumor volumes were estimated by measuring three tumor dimensions using a caliper and the ellipsoid formula: Volume=π·L·W·H/6, where L, W and H are the length, width and height of the tumor, respectively. The weights of the mice were monitored every week. MIA PaCa-2 mice were sacrificed when the volume exceeded 10 times of its initial volume.
For Kaplan-Meier survival curve, each pair of group were compared by Log-rank (Mantel-Cox) test. […]
The subject of series [2] is MIA Paca-2 tumors. As to conditions: mice, single dose; cited from earlier work.
The conditions of series [3]: mice; cited from earlier work.

In turn, `COc1cccc2c1C(=O)c1c(O)c3c(c(O)c1C2=O)C[C@@](O)(C(=O)CO)C[C@@H]3O[C@H]1C[C@H](N)[C@H](O)[C@H](C)O1` [Free Dox, Doxorubicin] yielded a median survival with MIA Paca-2 tumors [1] (7 mg/kg, single dose, no laser) of 19 days. In the series on MIA Paca-2 tumors [2], the maximum tolerated dose is reported as 7 mg/kg.

In the case of `C=CC1=C(C)c2cc3[nH]c(c4c5nc(cc6[nH]c(cc1n2)c(C)c6CC)C(C)=C5C(=O)C4)C(CCC(=O)OC(COC(=O)CCCCCCCCCCCCCCC)COP(=O)([O-])OCC[N+](C)(C)C)C3C` (stereo not shown) [Pyro-phospholipid], the well-tolerated intravenous dose in series [3] is at most 1000 mg/kg.

HPPH returned a median survival in the series with MIA Paca-2 tumors [1] (conventional PDT, 1.21 μmol/kg, light 24 h post injection, 300 J/cm^2) of 38 days.
